Experimental findings from publication PMC4827093, “Proximal ADP-ribose Hydrolysis in Trypanosomatids is Catalyzed by a Macrodomain” (Scientific Reports, 2016) are described below.

Where two headings read alike, the source gives them in different places.

The target of test [1] is T1, TbMDO (Trypanosoma brucei MacroD-like protein) (Trypanosoma brucei, UniProt C9ZP98).
T1 construct: gene TbgDal_V3640; full-length, codon-optimized synthetic cDNA, pNH-TrxT vector, E. coli BL21(DE3), fusion tags cut with TEV protease; crystal structures comprise residues 11-261
T1 sequence (C9ZP98 1-265): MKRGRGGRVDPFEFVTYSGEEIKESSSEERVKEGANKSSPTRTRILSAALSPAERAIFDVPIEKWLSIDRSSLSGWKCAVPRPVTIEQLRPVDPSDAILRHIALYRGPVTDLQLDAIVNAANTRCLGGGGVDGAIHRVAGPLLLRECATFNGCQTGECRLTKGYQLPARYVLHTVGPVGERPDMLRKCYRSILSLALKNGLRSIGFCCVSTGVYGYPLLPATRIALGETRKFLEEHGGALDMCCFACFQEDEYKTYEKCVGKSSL
Nature of the test: isothermal titration calorimetry. The format is binding. A general note: In ITC the heat of successive injections is recorded.

Test [2] addresses T2, TcMDO (Trypanosoma cruzi MacroD-like protein) (Trypanosoma cruzi, UniProt Q4DQ03).
T2 construct: gene Tc00.1047053509179.20; full-length, codon-optimized synthetic cDNA, pNH-TrxT vector, E. coli BL21(DE3), fusion tags cut with TEV protease; crystal structure comprises residues 13-257
T2 sequence (Q4DQ03 1-267): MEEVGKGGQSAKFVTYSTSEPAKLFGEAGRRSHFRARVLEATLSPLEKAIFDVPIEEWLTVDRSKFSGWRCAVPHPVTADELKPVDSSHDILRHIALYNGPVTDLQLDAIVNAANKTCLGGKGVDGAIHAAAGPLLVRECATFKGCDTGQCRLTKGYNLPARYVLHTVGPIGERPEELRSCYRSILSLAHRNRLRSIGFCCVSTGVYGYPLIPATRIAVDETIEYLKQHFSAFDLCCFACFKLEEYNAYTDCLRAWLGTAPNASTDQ
Nature of the test: isothermal titration calorimetry. In kind it is binding.

Test [3] concerns the target T1, TbMDO (Trypanosoma brucei MacroD-like protein). The test is described as follows: ESI-TOF mass spectrometry of hydrolysis products. The format is biochemical. Conditions: 0.5 mM 2′/3′-O-acetyl-ADP-ribose, 50 μM protein, 22 °C, 4 h; isomer mixture.
For test [4], the target named is T2, TcMDO (Trypanosoma cruzi MacroD-like protein). The test is described as follows: ESI-TOF mass spectrometry of hydrolysis products. Conditions: 0.5 mM 2′/3′-O-acetyl-ADP-ribose, 50 μM protein, 22 °C, 4 h; isomer mixture. In kind it is biochemical.
[5] abbreviates: pH 7.5, 50 mM HEPES, 250 mM NaCl, 0.5 mM TCEP, 25 °C, three titrations, same data as the Ka row, read-out: affinities.

For the compound `Nc1ncnc2c1ncn2[C@@H]1O[C@H](COP(=O)(O)OP(=O)(O)OC[C@H]2OC(O)[C@H](O)[C@@H]2O)[C@@H](O)[C@H]1O` (some centres unmarked) [ADP-ribose], the results for the Kd in test [1] (setting [5]) and in test [2] (setting [5]) were 1.3 µM and 0.2 µM, respectively.

Take `Nc1ncnc2c1ncn2[C@@H]1O[C@H](COP(=O)(O)OP(=O)(O)O)[C@@H](O)[C@H]1O` [ADP]: the Kd was 1850 µM in test [1] (read-out: K (converted)), 1900 µM in test [1] (read-out: KD), 820 µM in test [2] (read-out: K (converted)) and 800 µM in test [2] (read-out: KD).

As to `CC(=O)O[C@H]1C(O)O[C@H](COP(=O)(O)OP(=O)(O)OC[C@H]2O[C@@H](n3cnc4c(N)ncnc43)[C@H](O)[C@@H]2O)[C@H]1O` (some centres unmarked) [O-acetyl-ADP-ribose], the “ESI-TOF mass spectrometry of hydrolysis products” value in test [3] and in test [4] was “Incubation of O-acetyl-ADP-ribose with both proteins resulted in the decrease of the mass” each time.
